Experimental data: US20240261271A1, “APPLICATION OF HYDRONIDONE IN PREPARATION OF DRUG FOR TREATING OR PREVENTING CHRONIC HEPATITIS B WITH LIVER FIBROSIS” (priority 2021, published 2024)
Where “and” joins values, the source holds several entries; their conditions need not be identical. Equal values may be shown once.

Tested on: chronic hepatitis B with hepatic fibrosis
Test: Phase II clinical study: hepatic fibrosis Ishak score by liver biopsy, before and after 52 weeks of treatment on entecavir basic treatment
Assay type: in vivo, human
Conditions: for Ishak score 4 points, n(%) / Ishak score 5 points, n(%) / Ishak score 6 points, n(%) / Hepatic fibrosis Ishak score, Mean (SD) / Hepatic fibrosis Ishak score, Median / Ishak score 0 point, n(%) / Ishak score 1 point, n(%) / Ishak score 2 points, n(%) / Ishak score 3 points, n(%) / Progressive Ishak score (increases by ≥1 compared with the baseline) / Reversed Ishak score (decreases by ≥1 point compared with the baseline) / Stable Ishak score (unchanged compared with the baseline): 52 weeks of treatment; for Rate difference (B-C) % and 95% CI, Ishak score decreased by ≥1: 360 mg group minus 180 mg group; for Rate difference (B-C) % and 95% CI, Ishak score decreased by ≥1 / Rate difference (B-D) % and 95% CI, Ishak score decreased by ≥1 / Rate difference (A-B) % and 95% CI, Ishak score decreased by ≥1 / Rate difference (A-C) % and 95% CI, Ishak score decreased by ≥1 / Rate difference (A-D) % and 95% CI, Ishak score decreased by ≥1: 52 weeks; for Rate difference (B-D) % and 95% CI, Ishak score decreased by ≥1: 360 mg group minus 270 mg group; for Rate difference (A-C) % and 95% CI, Ishak score decreased by ≥1: placebo group minus 180 mg group; for Rate difference (A-D) % and 95% CI, Ishak score decreased by ≥1: placebo group minus 270 mg group
Procedure: This is a randomized, double-blind, placebo-controlled, multicenter, and dose-finding phase II clinical study with foundational treatment. In the clinical trial, three different dose test groups and a placebo control group were set on the basis of the entecavir capsule antiviral treatment, and the planned sample amount of each group was 60 cases, totaling 240 cases. The three dose test groups were 180 mg group, 270 mg group, and 360 mg group, respectively. […]

[1] = 270 mg group, PPS, baseline Ishak score ≥3
[2] = 270 mg group, PPS, all subjects
[3] = 270 mg group, PPS, screening period-follow-up 15 (52 weeks), baseline Ishak score ≥3
[4] = 360 mg group, FAS, 52 weeks of treatment vs baseline, all subjects
[5] = 360 mg group, FAS, all subjects
[6] = 360 mg group, FAS, baseline Ishak score ≥3
[7] = 360 mg group, FAS, screening period-follow-up 15 (52 weeks), baseline Ishak score ≥3
[8] = 360 mg group, PPS, 52 weeks of treatment vs baseline, all subjects
[9] = 360 mg group, PPS, all subjects
[10] = 360 mg group, PPS, baseline Ishak score ≥3
[11] = 360 mg group, PPS, screening period-follow-up 15 (52 weeks), baseline Ishak score ≥3
[12] = Group B/C/D combined, FAS, baseline Ishak score ≥2
[13] = Group B/C/D combined, FAS, screening period-follow-up 15 (52 weeks), baseline Ishak score ≥2
[14] = Group B/C/D combined, PPS, baseline Ishak score ≥2
[15] = Group B/C/D combined, PPS, screening period-follow-up 15 (52 weeks), baseline Ishak score ≥2

SMILES: Cc1ccc(=O)n(-c2ccc(O)cc2)c1 [hydronidone]
- Ishak score 4 points, n(%) [1]: 5(20.00) n(%)
- Ishak score 5 points, n(%) [1]: 5(20.00) n(%)
- Ishak score 6 points, n(%) [1]: 2(8.00) n(%)
- Ishak score change, Baseline-52 weeks of treatment, Mean (SD) [2]: 0.91(1.15)
- Ishak score change, Baseline-52 weeks of treatment, Median [2]: 1.00
- Ishak score decreased by <1, n(%) [3]: 7(28.00) n(%)
- Ishak score decreased by ≥1, n(%) [3]: 18(72.00) n(%)
- Rate difference (B-C) % and 95% CI, Ishak score decreased by ≥1 (FAS, all subjects): 3.43(−17.12, 23.60) %
- Rate difference (B-C) % and 95% CI, Ishak score decreased by ≥1 (FAS, baseline Ishak score ≥3): 4.45(−20.88, 29.28) %
- Rate difference (B-C) % and 95% CI, Ishak score decreased by ≥1 (PPS, all subjects): 5.72(−16.89, 27.53) %
- Rate difference (B-C) % and 95% CI, Ishak score decreased by ≥1 (PPS, baseline Ishak score ≥3): 8.91(−17.46, 34.07) %
- Rate difference (B-D) % and 95% CI, Ishak score decreased by ≥1 (FAS, all subjects): −12.20(−32.01, 9.10) %
- Rate difference (B-D) % and 95% CI, Ishak score decreased by ≥1 (FAS, baseline Ishak score ≥3): −5.67(−29.01, 18.67) %
- Rate difference (B-D) % and 95% CI, Ishak score decreased by ≥1 (PPS, all subjects): −12.77(−33.83, 9.98) %
- Rate difference (B-D) % and 95% CI, Ishak score decreased by ≥1 (PPS, baseline Ishak score ≥3): −4.00(−27.91, 20.54) %
- Ishak score decreased by <1, n(%) [4]: 23(56.10) n(%)
- Ishak score decreased by ≥1, n(%) [4]: 18 (43.90%) n(%) and 18(43.90) n(%)
- Hepatic fibrosis Ishak score, Mean (SD) [5]: 2.83(1.45)
- Hepatic fibrosis Ishak score, Median [5]: 3.00
- Ishak score 0 point, n(%) [5]: 0(0.00) n(%)
- Ishak score 1 point, n(%) [5]: 10(24.39) n(%)
- Ishak score 2 points, n(%) [5]: 8(19.51) n(%)
- Ishak score 3 points, n(%) [5]: 9(21.95) n(%)
- Ishak score 4 points, n(%) [5]: 8(19.51) n(%)
- Ishak score 5 points, n(%) [5]: 5(12.20) n(%)
- Ishak score 6 points, n(%) [5]: 1(2.44) n(%)
- Progressive Ishak score (increases by ≥1 compared with the baseline) [5]: 5 (12.20%) n(%) and 5(12.20) n(%)
- Reversed Ishak score (decreases by ≥1 point compared with the baseline) [5]: 18(43.90) n(%)
- Stable Ishak score (unchanged compared with the baseline) [5]: 18 (43.90%) n(%) and 18(43.90) n(%)
- Ishak score 0 point, n(%) [6]: 0(0.00) n(%)
- Ishak score 1 point, n(%) [6]: 4(13.79) n(%)
- Ishak score 2 points, n(%) [6]: 4(13.79) n(%)
- Ishak score 3 points, n(%) [6]: 8(27.59) n(%)
- Ishak score 4 points, n(%) [6]: 7(24.14) n(%)
- Ishak score 5 points, n(%) [6]: 5(17.24) n(%)
- Ishak score 6 points, n(%) [6]: 1(3.45) n(%)
- Ishak score change, Baseline-52 weeks of treatment, Mean (SD) [5]: 0.56(1.25)
- Ishak score change, Baseline-52 weeks of treatment, Median [5]: 0.00
- Ishak score decreased by <1, n(%) [7]: 12(41.38) n(%)
- Ishak score decreased by ≥1, n(%) [7]: 17(58.62) n(%)
- Ishak score decreased by <1, n(%) [8]: 16(47.06) n(%)
- Ishak score decreased by ≥1, n(%) [8]: 18 (52.94%) n(%) and 18(52.94) n(%)
- Hepatic fibrosis Ishak score, Mean (SD) [9]: 2.82(1.49)
- Hepatic fibrosis Ishak score, Median [9]: 3.00
- Ishak score 0 point, n(%) [9]: 0(0.00) n(%)
- Ishak score 1 point, n(%) [9]: 9(26.47) n(%)
- Ishak score 2 points, n(%) [9]: 6(17.65) n(%)
- Ishak score 3 points, n(%) [9]: 7(20.59) n(%)
- Ishak score 4 points, n(%) [9]: 7(20.59) n(%)
- Ishak score 5 points, n(%) [9]: 4(11.76) n(%)
- Ishak score 6 points, n(%) [9]: 1(2.94) n(%)
- Progressive Ishak score (increases by ≥1 compared with the baseline) [9]: 5 (14.71%) n(%) and 5(14.71) n(%)
- Reversed Ishak score (decreases by ≥1 point compared with the baseline) [9]: 18(52.94) n(%)
- Stable Ishak score (unchanged compared with the baseline) [9]: 11 (32.35%) n(%) and 11(32.35) n(%)
- Ishak score 0 point, n(%) [10]: 0(0.00) n(%)
- Ishak score 1 point, n(%) [10]: 4(16.00) n(%)
- Ishak score 2 points, n(%) [10]: 4(16.00) n(%)
- Ishak score 3 points, n(%) [10]: 6(24.00) n(%)
- Ishak score 4 points, n(%) [10]: 6(24.00) n(%)
- Ishak score 5 points, n(%) [10]: 4(16.00) n(%)
- Ishak score 6 points, n(%) [10]: 1(4.00) n(%)
- Ishak score change, Baseline-52 weeks of treatment, Mean (SD) [9]: 0.68(1.34)
- Ishak score change, Baseline-52 weeks of treatment, Median [9]: 1.00
- Ishak score decreased by <1, n(%) [11]: 8(32.00) n(%)
- Ishak score decreased by ≥1, n(%) [11]: 17(68.00) n(%)
- Rate difference (A-B) % and 95% CI, Ishak score decreased by ≥1 (Group A vs Group B/C/D combined, FAS, baseline Ishak score ≥2): −24.09(−40.50, −4.45) %
- Rate difference (A-B) % and 95% CI, Ishak score decreased by ≥1 (Group A vs Group B/C/D combined, PPS, baseline Ishak score ≥2): −32.29(−48.91, −12.08) %
- Ishak score 0 point, n(%) [12]: 5(4.95) n(%)
- Ishak score 1 point, n(%) [12]: 20(19.80) n(%)
- Ishak score 2 points, n(%) [12]: 17(16.83) n(%)
- Ishak score 3 points, n(%) [12]: 18(17.82) n(%)
- Ishak score 4 points, n(%) [12]: 17(16.83) n(%)
- Ishak score 5 points, n(%) [12]: 17(16.83) n(%)
- Ishak score 6 points, n(%) [12]: 7(6.93) n(%)
- Ishak score decreased by <1, n(%) [13]: 43(42.57) n(%)
- Ishak score decreased by ≥1, n(%) [13]: 58(57.43) n(%)
- Ishak score 0 point, n(%) [14]: 5(5.75) n(%)
- Ishak score 1 point, n(%) [14]: 20(22.99) n(%)
- Ishak score 2 points, n(%) [14]: 12(13.79) n(%)
- Ishak score 3 points, n(%) [14]: 14(16.09) n(%)
- Ishak score 4 points, n(%) [14]: 16(18.39) n(%)
- Ishak score 5 points, n(%) [14]: 14(16.09) n(%)
- Ishak score 6 points, n(%) [14]: 6(6.90) n(%)
- Ishak score decreased by <1, n(%) [15]: 29(33.33) n(%)
- Ishak score decreased by ≥1, n(%) [15]: 58(66.67) n(%)
- Rate difference (A-C) % and 95% CI, Ishak score decreased by ≥1 (FAS, all subjects): −14.89(−33.32, 4.99) %
- Rate difference (A-C) % and 95% CI, Ishak score decreased by ≥1 (FAS, baseline Ishak score ≥3): −18.17(−42.04, 9.11) %
- Rate difference (A-C) % and 95% CI, Ishak score decreased by ≥1 (PPS, all subjects): −21.03(−40.20, 0.26) %
- Rate difference (A-C) % and 95% CI, Ishak score decreased by ≥1 (PPS, baseline Ishak score ≥3): −23.09(−46.75, 5.09) %
- Rate difference (A-D) % and 95% CI, Ishak score decreased by ≥1 (FAS, all subjects): −30.52% and −30.52(−48.12, −9.50) %
- Rate difference (A-D) % and 95% CI, Ishak score decreased by ≥1 (FAS, baseline Ishak score ≥3): −28.29(−50.04, −1.45) %
- Rate difference (A-D) % and 95% CI, Ishak score decreased by ≥1 (PPS, all subjects): −39.52% and −39.52(−56.83, −17.26) %
- Rate difference (A-D) % and 95% CI, Ishak score decreased by ≥1 (PPS, baseline Ishak score ≥3): −36.00(−56.89, −8.38) %
- Rate difference (A-B) % and 95% CI, Ishak score decreased by ≥1 (placebo group minus 360 mg group, FAS, all subjects): −18.32(−36.76, 1.96) %
- Rate difference (A-B) % and 95% CI, Ishak score decreased by ≥1 (placebo group minus 360 mg group, FAS, baseline Ishak score ≥3): −22.62(−44.98, 3.82) %
- Rate difference (A-B) % and 95% CI, Ishak score decreased by ≥1 (placebo group minus 360 mg group, PPS, all subjects): −26.75% and −26.75(−45.78, −4.75) %
- Rate difference (A-B) % and 95% CI, Ishak score decreased by ≥1 (placebo group minus 360 mg group, PPS, baseline Ishak score ≥3): −32.00(−53.61, −4.37) %
- Rate difference (A-B) % and 95% CI, Ishak score decreased by ≥1 (placebo group vs 270 mg group + 360 mg group, FAS, baseline Ishak score = 6): −65.00(−87.03, −10.74) %
- Rate difference (A-B) % and 95% CI, Ishak score decreased by ≥1 (placebo group vs 270 mg group + 360 mg group, FAS, baseline Ishak score ≥3): −25.40(−44.93, −2.00) %
- Rate difference (A-B) % and 95% CI, Ishak score decreased by ≥1 (placebo group vs 270 mg group + 360 mg group, FAS, baseline Ishak score ≥4): −23.80(−46.21, 2.59) %
- Rate difference (A-B) % and 95% CI, Ishak score decreased by ≥1 (placebo group vs 270 mg group + 360 mg group, FAS, baseline Ishak score ≥5): −15.38(−42.13, 13.79) %
- Rate difference (A-B) % and 95% CI, Ishak score decreased by ≥1 (placebo group vs 270 mg group + 360 mg group, PPS, baseline Ishak score = 6): −65.00(−87.03, −10.74) %
- Rate difference (A-B) % and 95% CI, Ishak score decreased by ≥1 (placebo group vs 270 mg group + 360 mg group, PPS, baseline Ishak score ≥3): −34.00(−53.15, −10.15) %
- Rate difference (A-B) % and 95% CI, Ishak score decreased by ≥1 (placebo group vs 270 mg group + 360 mg group, PPS, baseline Ishak score ≥4): −30.06(−51.94, −3.18) %
- Rate difference (A-B) % and 95% CI, Ishak score decreased by ≥1 (placebo group vs 270 mg group + 360 mg group, PPS, baseline Ishak score ≥5): −20.83(−47.05, 8.90) %
